Like-named read-outs stand apart in the source and are kept apart here.
Experiments:
[1] = molecular target: KRAS Q61H (Homo sapiens (Human), UniProt P01116+P62937, Q61H); assay: Ras-Raf (BRAF RBD) disruption / FRET / MOA assay, KRAS Q61H; type: biochemical; conditions: Ras-Raf disruption/FRET/MOA assay; class symbols; read-out: KRAS Q61H FRET data IC50
In short: (§1)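 TR-FRET disruption of nucleotide-loaded Ras binding to BRAF RBD via compound-driven ternary complex with cyclophilin A. Compound as 10-point 3-fold series from 30 μM final, 3 h at 25° C, then anti-His Eu-W1024 (10 nM) and anti-GST allophycocyanin (50 nM) for 1.5 h. IC50 from decreased FRET ratio versus DMSO.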

[2] = molecular target: KRAS WT (Homo sapiens (Human), UniProt P01116+P62937); assay: Ras-Raf (BRAF RBD) disruption / FRET / MOA assay, KRAS WT; type: biochemical; conditions: read-out: IC50* KRAS WT FRET data
In short: (§2)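 Ras:RAF disruption was scored as a fall in TR-FRET ratio relative to DMSO. Compound ranged in 3-fold steps over 10 points from 30 μM final; incubation ran 3 h at 25° C, detection antibodies a further 1.5 h. Reported as IC50.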

[3] = test system: NCI-H358 cells (K-Ras G12C); assay: Potency assay: pERK in NCI-H358 cells; type: cell-based, human; conditions: Homo sapiens, NCI-H358; H358 KRAS G12C; read-out: pERK EC50
In short: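 Compounds are dosed as ten 3-fold dilutions from a 10 mM DMSO stock, in duplicate, and left on cells for 4 h at 37 °C, 5% CO2. Phospho-ERK1/2 is then quantified by AlphaLISA SureFire Ultra or In-Cell Western, and IC50 is derived from a 4-parameter sigmoid against log concentration.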

[4] = molecular target: KRAS G13D (Homo sapiens (Human), UniProt P01116+P62937, G13D); assay: Ras-Raf (BRAF RBD) disruption / FRET / MOA assay, KRAS G13D; type: biochemical
In short: as §2

[5] = molecular target: KRAS G12S (Homo sapiens (Human), UniProt P01116+P62937, G12S); assay: Ras-Raf (BRAF RBD) disruption / FRET / MOA assay, KRAS G12S; type: biochemical; conditions: Ras-Raf disruption/FRET/MOA assay; class symbols; read-out: KRAS G12S FRET data IC50
In short: as §2

[6] = molecular target: K-Ras G13C (Homo sapiens (Human), UniProt P01116+P62937, G13C); assay: Ras-Raf (BRAF RBD) disruption / FRET / MOA assay, KRAS G13C; type: biochemical; conditions: KRAS G13C; Ras-Raf disruption/FRET/MOA assay; read-out: IC50* KRAS G13C FRET data
In short: as §2

[7] = molecular target: NRAS Q61R (Homo sapiens (Human), UniProt P01111+P62937, Q61R); assay: Ras-Raf (BRAF RBD) disruption / FRET / MOA assay, NRAS Q61R; type: biochemical; conditions: NRAS Q61R; Ras-Raf disruption/FRET/MOA assay; read-out: IC50* NRAS Q61R FRET data
In short: as §1

[8] = read-out: IC50* KRAS G13D FRET data

Sequence of KRAS Q61H (P01116-2 other isoform, or with tags, fused parts or gaps Q61H): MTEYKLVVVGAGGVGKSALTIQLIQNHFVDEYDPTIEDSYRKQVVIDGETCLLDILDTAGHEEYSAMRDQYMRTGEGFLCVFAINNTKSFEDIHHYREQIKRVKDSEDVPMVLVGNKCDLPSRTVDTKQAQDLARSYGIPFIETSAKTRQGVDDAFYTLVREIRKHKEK
Sequence of KRAS Q61H (P62937 whole entry): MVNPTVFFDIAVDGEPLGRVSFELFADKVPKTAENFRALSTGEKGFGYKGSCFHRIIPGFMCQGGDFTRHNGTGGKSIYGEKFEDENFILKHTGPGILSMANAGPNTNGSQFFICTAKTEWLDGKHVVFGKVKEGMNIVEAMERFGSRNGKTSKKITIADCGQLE
Sequence of KRAS WT (P01116-2 other isoform, or with tags, fused parts or gaps): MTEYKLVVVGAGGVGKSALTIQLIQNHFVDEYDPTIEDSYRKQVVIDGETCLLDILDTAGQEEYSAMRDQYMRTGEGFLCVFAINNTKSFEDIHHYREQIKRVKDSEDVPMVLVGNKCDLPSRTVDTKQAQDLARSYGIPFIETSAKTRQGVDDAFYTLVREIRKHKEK
Sequence of KRAS WT (P62937 whole entry): as the sequence (P62937 whole entry) above
Sequence of K-Ras G13C (P01116-2 other isoform, or with tags, fused parts or gaps G13C): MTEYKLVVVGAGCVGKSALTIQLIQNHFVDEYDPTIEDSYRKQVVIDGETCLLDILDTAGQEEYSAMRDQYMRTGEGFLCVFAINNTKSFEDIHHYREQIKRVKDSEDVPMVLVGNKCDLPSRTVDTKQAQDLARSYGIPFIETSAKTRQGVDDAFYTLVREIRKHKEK
Sequence of K-Ras G13C (P62937 whole entry): as the sequence (P62937 whole entry) above
Sequence of KRAS G13D (P01116-2 other isoform, or with tags, fused parts or gaps G13D): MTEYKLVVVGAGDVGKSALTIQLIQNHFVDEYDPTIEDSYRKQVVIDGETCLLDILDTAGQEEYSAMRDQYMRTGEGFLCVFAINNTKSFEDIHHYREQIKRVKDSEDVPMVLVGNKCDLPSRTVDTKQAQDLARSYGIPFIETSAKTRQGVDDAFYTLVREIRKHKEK
Sequence of KRAS G13D (P62937 whole entry): as the sequence (P62937 whole entry) above
Sequence of NRAS Q61R (P01111 whole entry Q61R): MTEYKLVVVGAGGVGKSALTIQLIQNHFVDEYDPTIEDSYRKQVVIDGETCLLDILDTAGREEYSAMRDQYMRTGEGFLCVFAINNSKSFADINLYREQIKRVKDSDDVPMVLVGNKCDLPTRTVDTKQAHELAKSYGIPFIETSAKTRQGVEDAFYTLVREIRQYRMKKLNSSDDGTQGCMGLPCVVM
Sequence of NRAS Q61R (P62937 whole entry): as the sequence (P62937 whole entry) above
Sequence of KRAS G12S (P01116-2 other isoform, or with tags, fused parts or gaps G12S): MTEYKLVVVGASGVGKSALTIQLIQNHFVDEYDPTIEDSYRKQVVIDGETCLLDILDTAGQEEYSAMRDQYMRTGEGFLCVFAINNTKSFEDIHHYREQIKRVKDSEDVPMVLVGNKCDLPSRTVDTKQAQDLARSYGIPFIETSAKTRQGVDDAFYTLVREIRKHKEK
Sequence of KRAS G12S (P62937 whole entry): as the sequence (P62937 whole entry) above

C=CC(=O)N1CCO[C@@]2(CCN(C(=O)N(C)[C@H](C(=O)N[C@H]3Cc4nc(cs4)-c4ccc5c(c4)c(c(-c4cccnc4[C@H](C)OC)n5CC(F)(F)F)CC(C)(C)COC(=O)[C@@H]4CCCN(N4)C3=O)C(C)C)C2)C1 (atropisomer, axis not shown) [Example A594]
IC50 [1]: 10 to 100 nM
IC50 [2]: 10 to 100 nM
EC50 [3]: < 5000 nM
IC50 ([4]; IC50* KRAS G13D FRET data): 100 to 1000 nM
IC50 [5]: 100 to 1000 nM
IC50 [6]: 10 to 100 nM
IC50 [7]: 10 to 100 nM

C=CC(=O)N1C[C@@H]2CN(C(=O)N(C)[C@H](C(=O)N[C@H]3Cc4nc(cs4)-c4ccc5c(c4)c(c(-c4cccnc4[C@H](C)OC)n5CC)CC(C)(C)COC(=O)[C@@H]4CCCN(N4)C3=O)C(C)C)C[C@@H]2C1 (atropisomer, axis not shown) [Example A389]
IC50 [1]: 10 to 100 nM
IC50 [2]: 10 to 100 nM
EC50 [3]: < 5000 nM
IC50 [4, 8]: 100 to 1000 nM
IC50 [5]: 10 to 100 nM
IC50 [6]: 10 to 100 nM
IC50 [7]: 10 to 100 nM

CCn1c(-c2cccnc2[C@H](C)OC)c2c3cc(ccc31)-c1csc(n1)C[C@H](NC(=O)[C@H](C(C)C)N(C)C(=O)N1CCC3(CC1)CN(C(=O)/C=C/CN1CCCCC1)C3)C(=O)N1CCC[C@H](N1)C(=O)OCC(C)(C)C2 (atropisomer, axis not shown) [Example A670]
IC50 [1]: 100 to 1000 nM
IC50 [2]: 100 to 1000 nM
EC50 [3]: < 5000 nM
IC50 [4, 8]: 100 to 1000 nM
IC50 [5]: 100 to 1000 nM
IC50 [6]: 100 to 1000 nM
IC50 [7]: 100 to 1000 nM

C=CC(=O)N1CCC2(CC1)CCN(C(=O)N(C)[C@H](C(=O)N[C@H]1Cc3nc(cs3)-c3ccc4c(c3)c(c(-c3cccnc3[C@H](C)OC)n4CC)CC(C)(C)COC(=O)[C@@H]3CCCN(N3)C1=O)C(C)C)CC2 (atropisomer, axis not shown) [Example A697]
IC50 [1]: 10 to 100 nM
IC50 [2]: 100 to 1000 nM
EC50 [3]: < 5000 nM
IC50 [4, 8]: 100 to 1000 nM
IC50 [5]: 100 to 1000 nM
IC50 [6]: 100 to 1000 nM
IC50 [7]: 10 to 100 nM

C=C(C)C(=O)N1CC2(CCN(C(=O)N(C)[C@H](C(=O)N[C@H]3Cc4nc(cs4)-c4ccc5c(c4)c(c(-c4cccnc4[C@H](C)OC)n5CC)CC(C)(C)COC(=O)[C@@H]4CCCN(N4)C3=O)C(C)C)CC2)C1 (atropisomer, axis not shown) [Example A651]
IC50 [1]: 10 to 100 nM
IC50 [2]: 100 to 1000 nM
EC50 [3]: < 5000 nM
IC50 [4, 8]: 100 to 1000 nM
IC50 [5]: 100 to 1000 nM
IC50 [6]: 100 to 1000 nM
IC50 [7]: 100 to 1000 nM

C=CC(=O)NCCN1CCN(C(=O)N(C)[C@H](C(=O)N[C@H]2Cc3nc(cs3)-c3ccc4c(c3)c(c(-c3cccnc3[C@H](C)OC)n4CC)CC(C)(C)COC(=O)[C@@H]3CCCN(N3)C2=O)C(C)C)CC1 (atropisomer, axis not shown) [Example A582]
IC50 [1]: 10 to 100 nM
IC50 [2]: 100 to 1000 nM
EC50 [3]: < 5000 nM
IC50 [4, 8]: 100 to 1000 nM
IC50 [5]: 100 to 1000 nM
IC50 [6]: 100 to 1000 nM
IC50 [7]: 100 to 1000 nM

C=CC(=O)N1CCN(C(=O)N(C)[C@H](C(=O)N[C@H]2Cc3nc(cs3)-c3ccc4c(c3)c(c(-c3cccnc3[C@H](C)OC)n4CC(F)(F)F)CC(C)(C)COC(=O)[C@@H]3CCCN(N3)C2=O)C(C)C)CC12CC2 (atropisomer, axis not shown) [Example A679]
IC50 [1]: 10 to 100 nM
IC50 [2]: 10 to 100 nM
EC50 [3]: < 5000 nM
IC50 [4, 8]: 100 to 1000 nM
IC50 [5]: 10 to 100 nM
IC50 [6]: 10 to 100 nM
IC50 [7]: 10 to 100 nM

CCn1c(-c2cccnc2[C@H](C)OC)c2c3cc(ccc31)-c1cccc(c1)C[C@H](NC(=O)[C@@H](CO[C@@H]1CCN(C(=O)C#CC(C)(C)N(C)C)C1)C(C)C)C(=O)N1CCC[C@H](N1)C(=O)OCC(C)(C)C2 (atropisomer, axis not shown) [Example A584]
IC50 [1]: 1000 to 10000 nM
IC50 [2]: > 10000 nM
EC50 [3]: < 5000 nM
IC50 [4, 8]: > 10000 nM
IC50 [5]: > 10000 nM
IC50 [6]: 1000 to 10000 nM
IC50 [7]: > 10000 nM

C=CC(=O)N1CC[C@@H]2[C@H]1CN2C(=O)N(C)[C@H](C(=O)N[C@H]1Cc2nc(cs2)-c2ccc3c(c2)c(c(-c2cccnc2[C@H](C)OC)n3CC)CC(C)(C)COC(=O)[C@@H]2CCCN(N2)C1=O)C(C)C (atropisomer, axis not shown) [Example A546]
IC50 [1]: 100 to 1000 nM
IC50 [2]: 1000 to 10000 nM
EC50 [3]: < 5000 nM
IC50 [4, 8]: 1000 to 10000 nM
IC50 [5]: 1000 to 10000 nM
IC50 [6]: 10 to 100 nM
IC50 [7]: 100 to 1000 nM

C=CC(=O)N1CCO[C@H]2CN(C(=O)N(C)[C@H](C(=O)N[C@H]3Cc4nc(cs4)-c4ccc5c(c4)c(c(-c4cccnc4[C@H](C)OC)n5CC)CC(C)(C)COC(=O)[C@@H]4CCCN(N4)C3=O)C(C)C)C[C@@H]21 (atropisomer, axis not shown) [Example A544]
IC50 [1]: 10 to 100 nM
IC50 [2]: 100 to 1000 nM
EC50 [3]: < 5000 nM
IC50 [4, 8]: 100 to 1000 nM
IC50 [5]: 100 to 1000 nM
IC50 [6]: 100 to 1000 nM
IC50 [7]: 100 to 1000 nM

CO[C@@H](C)c1ncccc1-c1c2c3nc(ccc3n1CC(F)(F)F)-c1cccc(c1)C[C@H](NC(=O)[C@@H](COC1CN(C(=O)C#CC(C)(C)N(C)C)C1)C(C)C)C(=O)N1CCC[C@H](N1)C(=O)OCC(C)(C)C2 (atropisomer, axis not shown) [Example A724]
IC50 [1]: > 10000 nM
IC50 [2]: > 10000 nM
EC50 [3]: < 5000 nM
IC50 [4, 8]: > 10000 nM
IC50 [5]: > 10000 nM
IC50 [6]: > 10000 nM
IC50 [7]: > 10000 nM

C=CC(=O)N1CCN(C(=O)N(C)[C@H](C(=O)N[C@H]2Cc3nc(cs3)-c3ccc4c(c3)c(c(-c3cccnc3[C@H](C)OC)n4CC)CC(C)(C)COC(=O)[C@@H]3CCCN(N3)C2=O)C(C)C)[C@@H]2C[C@@H]21 (atropisomer, axis not shown) [Example A736]
IC50 [1]: 10 to 100 nM
IC50 [2]: 10 to 100 nM
EC50 [3]: < 5000 nM
IC50 [4, 8]: 100 to 1000 nM
IC50 [5]: 10 to 100 nM
IC50 [6]: 10 to 100 nM
IC50 [7]: 10 to 100 nM

C=CC(=O)N1CCOC2(CCN(C(=O)N(C)[C@H](C(=O)N[C@H]3Cc4nsc(n4)-c4ccc5c(c4)c(c(-c4cccnc4[C@H](C)OC)n5CC)CC(C)(C)COC(=O)[C@@H]4CCCN(N4)C3=O)C(C)C)CC2)C1 (atropisomer, axis not shown) [Example A545]
IC50 [1]: 10 to 100 nM
IC50 [2]: 100 to 1000 nM
EC50 [3]: < 5000 nM
IC50 [4, 8]: 100 to 1000 nM
IC50 [5]: 100 to 1000 nM
IC50 [6]: 10 to 100 nM
IC50 [7]: 100 to 1000 nM

C=CC(=O)N(C)C[C@H]1CCN(C(=O)N(C)[C@H](C(=O)N[C@H]2Cc3nc(cs3)-c3ccc4c(c3)c(c(-c3cccnc3[C@H](C)OC)n4CC)CC(C)(C)COC(=O)[C@@H]3CCCN(N3)C2=O)C(C)C)C1 (atropisomer, axis not shown) [Example A653]
IC50 [1]: 10 to 100 nM
IC50 [2]: 100 to 1000 nM
EC50 [3]: < 5000 nM
IC50 [4, 8]: 100 to 1000 nM
IC50 [5]: 100 to 1000 nM
IC50 [6]: 100 to 1000 nM
IC50 [7]: 100 to 1000 nM

CCn1c(-c2cccnc2[C@H](C)OC)c2c3cc(ccc31)-c1cccc(c1)C[C@H](NC(=O)[C@H](C(C)C)N1CC[C@@]3(CCN(C(=O)C#C[C@H]4COCCN4C)C3)C1=O)C(=O)N1CCC[C@H](N1)C(=O)OCC(C)(C)C2 (atropisomer, axis not shown) [Example A551]
IC50 [1]: 100 to 1000 nM
IC50 [2]: 1000 to 10000 nM
EC50 [3]: < 5000 nM
IC50 [4, 8]: 1000 to 10000 nM
IC50 [5]: 1000 to 10000 nM
IC50 [6]: 100 to 1000 nM
IC50 [7]: 1000 to 10000 nM
